Data: patent US12433913B2, “Treatment of acute respiratory disease syndrome (ARDS) with polysulfated polysaccharides” (Paradigm Biopharmaceuticals Ltd., priority 2020, dated 2025)
Values joined by “and” are separate entries in the source; they are usually repeats but may differ in a detail not shown here. Equal entries are not always repeated. Where two headings read alike, the source gives them in different places.

Experiments:
SARS-CoV-2 [1] = type: cell-based, Vero (Africa Green Monkey kidney epithelium); settings: for PFU/well: replicates
IL-8, MCP-1 and MIP-1a = settings: cited from earlier work
[2] = 2 mg/kg twice weekly subcutaneously; cited from earlier work
allergen induced asthma = settings: intra-tracheal PPS; cited from earlier work
alphavirus = settings: within 3 to 10 days post PPS treatment in infected animals; cited from earlier work
[3] = test system: H1N1 PR-8 influenza strain; test: Influenza virus-induced ARDS mouse model (Study 1); type: in vivo, C57BL/6J mice
[4] = molecular target: T1, human leukocyte elastase (human neutrophil elastase) (Homo sapiens, UniProt P08246); settings: cited from earlier work
T1 sequence (P08246 30-267): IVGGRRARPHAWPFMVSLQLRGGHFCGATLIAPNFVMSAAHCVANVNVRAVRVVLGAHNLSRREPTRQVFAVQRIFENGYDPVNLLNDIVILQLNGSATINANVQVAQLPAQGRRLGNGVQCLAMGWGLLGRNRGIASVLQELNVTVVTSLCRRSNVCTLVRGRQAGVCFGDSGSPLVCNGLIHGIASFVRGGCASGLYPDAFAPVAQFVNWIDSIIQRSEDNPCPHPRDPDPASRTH

SARS-CoV-2 [5] = type: cell-based, Vero (Africa Green Monkey kidney epithelium); settings: for PFU/well: replicates; remark: listed apart in the source
SARS-CoV-2 [6] = type: cell-based, Vero (Africa Green Monkey kidney epithelium); settings: for PFU/well: replicates; remark: listed apart in the source

For pentosan polysulfate [PPS], which PFU/well (SARS-CoV-2 [1]; PPS 12.5 μg/ml incubated with both virus and cells 30 min prior to infection) is on record?
The PFU/well was 18 PFU/well and 19 PFU/well and 17 PFU/well and 22 PFU/well and 20 PFU/well (2×) and 25 PFU/well and 26 PFU/well.

What about the PFU/well (SARS-CoV-2 [1]; PPS 25 μg/ml incubated with both virus and cells 30 min prior to infection) of the same substance?
The PFU/well was 18 PFU/well and 15 PFU/well (2×) and 20 PFU/well and 21 PFU/well and 19 PFU/well and 22 PFU/well and 17 PFU/well.

And the PFU/well (SARS-CoV-2 [1]; PPS 50 μg/ml incubated with both virus and cells 30 min prior to infection)?
Its PFU/well is 12 PFU/well and 14 PFU/well (2×) and 15 PFU/well and 13 PFU/well and 18 PFU/well (2×) and 16 PFU/well.

What about the PFU/well (SARS-CoV-2 [1]; PPS 100 μg/ml incubated with both virus and cells 30 min prior to infection) of the same substance?
Its PFU/well is 8 PFU/well and 12 PFU/well and 11 PFU/well and 7 PFU/well and 13 PFU/well and 10 PFU/well and 16 PFU/well and 9 PFU/well.

What about the PFU/well (SARS-CoV-2 [1]; PPS 200 μg/ml incubated with both virus and cells 30 min prior to infection) of the same substance?
Its PFU/well is 6 PFU/well and 12 PFU/well and 10 PFU/well (2×) and 8 PFU/well and 11 PFU/well and 14 PFU/well and 13 PFU/well.

What about the “Maximum inhibition of plaque formation” value (SARS-CoV-2 [1]; top dose of 200 μg/ml, virus and cells treated 30 min prior to infection) of the same substance?
Its value is 77%.

What about the “Cell movement induced by IL-8, MCP-1 and MIP-1a” value (IL-8, MCP-1 and MIP-1a) of the same substance?
Its value is “inhibits cell movement”.

And the “Effect on blood coagulation” value [2]?
The value was “no lasting effect on blood coagulation”.

What about the Airway hyper-reactivity (allergen induced asthma) of the same substance?
Its Airway hyper-reactivity is “inhibited”.

What about the Lung compliance (allergen induced asthma) of the same substance?
Its Lung compliance is “increased”.

And the “Total number of infiltrating leukocytes and neutrophils in the bronchoalveolar fluid” value (allergen induced asthma)?
Its value is “significantly reduced”.

And the “Total protein content in the bronchoalveolar fluid” value (allergen induced asthma)?
The value was “significantly reduced”.

And the “Cytokine response (IL-1a; IL-2, IL-6, MIP1a and CCL2)” value (alphavirus)?
Its value is “reduction”.

What about the “Number of nuclei/mm^2 in lung sections” value ([3]; 3 mg/kg daily ip, Day 8, compared to vehicle treated animals) of the same substance?
Its value is “statistically significant reduction”.

What about the “Number of nuclei/mm^2 in lung sections” value ([3]; 3 mg/kg daily sc, Day 8, compared to vehicle treated animals) of the same substance?
Its value is “statistically significant reduction”.

What about the “Level of nuclei/mm^2 in infected PPS treated animals relative to uninfected animals” value ([3]; 3 mg/kg daily, Day 8) of the same substance?
Its value is “comparable to uninfected animals”.

And the Weight loss ([3]; 3 mg/kg daily, ip or sc, compared to infected animals treated with vehicle)?
Its Weight loss is “reduced weight loss”.

And the “Cellular infiltration in representative lung sections” value ([3]; 3 mg/kg ip or sc, Day 8, compared to vehicle treated animals)?
The value was “reduced cellular infiltration”.

And the “Fibrotic response (collagen, Masson's Trichrome stain)” value ([3]; 3 mg/kg sc from Day 0 or Day 2 post-infection, Day 21, compared to vehicle)?
Its value is “fibrotic response was reduced”.

And the Oxygen saturation levels ([3]; 3 mg/kg sc from Day 0 or Day 2 post-infection, measured Day 6 and Day 8, compared to vehicle treated infected animals)?
Its Oxygen saturation levels is “improved oxygen saturation levels”.

And the “Activity on human leukocyte elastase” value [4]?
Its value is “antagonist”.

And the PFU/well (SARS-CoV-2 [5]; PPS 12.5 μg/ml on Vero cells 30 min prior to infection with 50 PFU)?
Its PFU/well is 35 PFU/well and 33 PFU/well and 34 PFU/well and 40 PFU/well and 41 PFU/well and 39 PFU/well and 36 PFU/well and 37 PFU/well.

And the PFU/well (SARS-CoV-2 [5]; PPS 25 μg/ml on Vero cells 30 min prior to infection with 50 PFU)?
The PFU/well was 29 PFU/well and 31 PFU/well and 27 PFU/well and 25 PFU/well.

What about the PFU/well (SARS-CoV-2 [5]; PPS 200 μg/ml on Vero cells 30 min prior to infection with 50 PFU) of the same substance?
Its PFU/well is 18 PFU/well (2×) and 16 PFU/well (2×) and 20 PFU/well and 21 PFU/well and 17 PFU/well and 19 PFU/well.

What about the “Maximum inhibition of plaque formation” value (SARS-CoV-2 [5]; top dose of 200 μg/ml, cells treated 30 min prior to infection) of the same substance?
Its value is 60%.

What about the PFU/well (SARS-CoV-2 [6]; PPS 12.5 μg/ml incubated with virus inoculum 30 min prior to addition to Vero cells) of the same substance?
Its PFU/well is 31 PFU/well and 33 PFU/well and 39 PFU/well and 34 PFU/well and 42 PFU/well and 38 PFU/well and 40 PFU/well and 37 PFU/well.

What about the PFU/well (SARS-CoV-2 [6]; PPS 25 μg/ml incubated with virus inoculum 30 min prior to addition to Vero cells) of the same substance?
The PFU/well was 25 PFU/well and 28 PFU/well (2×) and 31 PFU/well (2×) and 34 PFU/well and 33 PFU/well and 35 PFU/well.

What about the PFU/well (SARS-CoV-2 [6]; PPS 50 μg/ml incubated with virus inoculum 30 min prior to addition to Vero cells) of the same substance?
The PFU/well was 24 PFU/well and 21 PFU/well and 28 PFU/well and 31 PFU/well and 32 PFU/well and 30 PFU/well and 29 PFU/well and 26 PFU/well.

And the PFU/well (SARS-CoV-2 [6]; PPS 100 μg/ml incubated with virus inoculum 30 min prior to addition to Vero cells)?
The PFU/well was 19 PFU/well and 17 PFU/well and 23 PFU/well and 26 PFU/well and 22 PFU/well (2×) and 25 PFU/well and 27 PFU/well.

What about the PFU/well (SARS-CoV-2 [6]; PPS 200 μg/ml incubated with virus inoculum 30 min prior to addition to Vero cells) of the same substance?
Its PFU/well is 16 PFU/well and 12 PFU/well and 20 PFU/well (2×) and 22 PFU/well and 21 PFU/well and 23 PFU/well and 24 PFU/well.

And the “Maximum inhibition of plaque formation” value (SARS-CoV-2 [6]; top dose of 200 μg/ml, virus treated 30 min prior to infection)?
Its value is 56%.
